Source: ChEMBL document CHEMBL1201862, “PubChem BioAssay data set” (2004)
Structures can show the parent of a compound that is named as a salt. The source made the active and inactive calls.

Tests used:
[1] = molecular target: T1, Beta-adrenergic receptor kinase 1 (Homo sapiens, UniProt P25098); assay: aptamer displacement from bead-bound GRK2 – biochemical, cherry pick 1, bead flow cytometry, dose response (AID 504500)
[2] = molecular target: T2, Apoptotic protease-activating factor 1 (Homo sapiens, UniProt O14727); assay: activation of Apaf-1 mediated apoptosis – fluorescent, uHTS hits, dose response (AID 588554); format: functional
T2 sequence (O14727 whole entry): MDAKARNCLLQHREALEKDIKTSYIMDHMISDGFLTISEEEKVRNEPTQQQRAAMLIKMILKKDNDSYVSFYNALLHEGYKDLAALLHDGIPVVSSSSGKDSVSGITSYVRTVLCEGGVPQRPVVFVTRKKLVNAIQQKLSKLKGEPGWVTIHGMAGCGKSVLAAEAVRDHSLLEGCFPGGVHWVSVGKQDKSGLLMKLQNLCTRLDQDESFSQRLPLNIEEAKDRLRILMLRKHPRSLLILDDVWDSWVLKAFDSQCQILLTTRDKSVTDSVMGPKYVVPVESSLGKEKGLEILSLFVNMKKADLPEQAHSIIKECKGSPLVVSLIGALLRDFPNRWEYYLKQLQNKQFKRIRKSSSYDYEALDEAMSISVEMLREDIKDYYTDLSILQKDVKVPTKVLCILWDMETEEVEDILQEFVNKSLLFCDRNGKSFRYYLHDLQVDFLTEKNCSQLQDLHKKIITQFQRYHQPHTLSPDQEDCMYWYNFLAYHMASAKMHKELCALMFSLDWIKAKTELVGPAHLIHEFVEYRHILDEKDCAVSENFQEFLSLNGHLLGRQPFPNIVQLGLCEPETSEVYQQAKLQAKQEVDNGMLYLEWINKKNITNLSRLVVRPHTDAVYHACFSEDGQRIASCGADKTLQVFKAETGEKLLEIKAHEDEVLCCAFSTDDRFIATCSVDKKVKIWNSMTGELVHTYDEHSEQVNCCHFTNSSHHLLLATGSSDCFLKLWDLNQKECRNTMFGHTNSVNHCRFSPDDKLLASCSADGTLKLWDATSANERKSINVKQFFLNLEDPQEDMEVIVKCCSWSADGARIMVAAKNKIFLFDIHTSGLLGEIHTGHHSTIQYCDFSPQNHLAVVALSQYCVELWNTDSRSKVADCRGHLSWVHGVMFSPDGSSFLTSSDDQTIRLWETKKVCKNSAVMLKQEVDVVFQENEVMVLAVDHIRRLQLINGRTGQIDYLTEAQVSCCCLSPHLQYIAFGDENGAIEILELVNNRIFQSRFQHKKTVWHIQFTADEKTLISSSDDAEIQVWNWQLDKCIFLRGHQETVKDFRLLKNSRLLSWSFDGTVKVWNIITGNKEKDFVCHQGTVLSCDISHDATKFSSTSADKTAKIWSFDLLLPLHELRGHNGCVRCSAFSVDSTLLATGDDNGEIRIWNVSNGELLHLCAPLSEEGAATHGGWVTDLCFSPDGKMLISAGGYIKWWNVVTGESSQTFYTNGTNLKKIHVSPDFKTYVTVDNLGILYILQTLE

[3] = molecular target: T1, Beta-adrenergic receptor kinase 1; assay: GRK2 inhibitors displacing RNA aptamer, dose response, biochemical, flow cytometry beads, FAM-aptamer, powder set 1 (AID 588720)
[4] = molecular target: T3, Carboxy-terminal domain RNA polymerase II polypeptide A small phosphatase 1 (Homo sapiens, UniProt Q9GZU7); assay: inhibitors of CTDSP1, concentration-response testing, biochemical assay, absorbance-based, actives from ultra-high-throughput screening (AID 540297); format: functional
T3 sequence (Q9GZU7 whole entry): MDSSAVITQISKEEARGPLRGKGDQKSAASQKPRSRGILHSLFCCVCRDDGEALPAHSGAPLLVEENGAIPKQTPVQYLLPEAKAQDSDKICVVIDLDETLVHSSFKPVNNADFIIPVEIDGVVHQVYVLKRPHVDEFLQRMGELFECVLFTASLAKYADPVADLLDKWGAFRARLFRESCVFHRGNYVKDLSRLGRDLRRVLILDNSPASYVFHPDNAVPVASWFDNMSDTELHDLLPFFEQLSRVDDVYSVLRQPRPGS

[5] = molecular target: Protein S100-A4 (Homo sapiens, UniProt P26447); assay: S100A4-myosin IIA binding inhibitor potency, dose response, biochemical, fluorescence polarization, cherry-picked hits (AID 687001); format: functional
Sequence of Protein S100-A4 (P26447 whole entry): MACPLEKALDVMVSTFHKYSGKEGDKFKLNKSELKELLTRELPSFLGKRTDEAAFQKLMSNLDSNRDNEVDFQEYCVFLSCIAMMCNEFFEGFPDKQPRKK

[6] = molecular target: T4, Caspase-6 (Homo sapiens, UniProt P55212); assay: human caspase-6 inhibitors, dose response, biochemical, VEID-R110 fluorescence, cherry-pick (AID 720632)
T4 sequence (P55212 whole entry): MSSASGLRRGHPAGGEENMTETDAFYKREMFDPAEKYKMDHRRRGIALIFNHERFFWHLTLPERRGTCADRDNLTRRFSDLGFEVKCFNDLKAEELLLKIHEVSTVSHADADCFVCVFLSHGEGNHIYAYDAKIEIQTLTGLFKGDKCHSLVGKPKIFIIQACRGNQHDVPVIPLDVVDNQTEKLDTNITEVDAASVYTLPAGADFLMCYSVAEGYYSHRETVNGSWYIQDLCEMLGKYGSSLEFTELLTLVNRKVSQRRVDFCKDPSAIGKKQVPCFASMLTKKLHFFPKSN

[7] = molecular target: Caspase-7 (Homo sapiens, UniProt P55210); assay: human caspase-7 inhibitors, dose response, selectivity assay for caspase-6 inhibitor project, biochemical, DEVD-R110 fluorescence, cherry-pick (AID 743295)
Sequence of Caspase-7 (P55210 24-198 limits assumed): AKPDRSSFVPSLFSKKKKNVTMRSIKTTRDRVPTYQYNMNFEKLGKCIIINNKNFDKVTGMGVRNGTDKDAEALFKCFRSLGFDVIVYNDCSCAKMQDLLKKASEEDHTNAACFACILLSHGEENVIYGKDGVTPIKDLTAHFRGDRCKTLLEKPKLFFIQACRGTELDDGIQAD
Sequence of Caspase-7 (P55210 207-303 limits assumed): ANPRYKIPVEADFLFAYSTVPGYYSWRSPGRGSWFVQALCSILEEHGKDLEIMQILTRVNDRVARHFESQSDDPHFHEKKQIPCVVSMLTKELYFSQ

[8] = molecular target: Peroxisome proliferator-activated receptor gamma/Nuclear receptor corepressor 2 (Homo sapiens, UniProt P37231+Q9Y618); assay: Counterscreen for NR2E3 inverse agonists: TR-FRET-based biochemical high throughput dose response assay to identify inverse agonists of the interaction between peroxisome proliferator-activated receptor gamma (PPARg) and nuclear receptor co-repressor 2 (NCOR2).; format: functional
Sequence of Peroxisome proliferator-activated receptor gamma/Nuclear receptor corepressor 2 (P37231 whole entry): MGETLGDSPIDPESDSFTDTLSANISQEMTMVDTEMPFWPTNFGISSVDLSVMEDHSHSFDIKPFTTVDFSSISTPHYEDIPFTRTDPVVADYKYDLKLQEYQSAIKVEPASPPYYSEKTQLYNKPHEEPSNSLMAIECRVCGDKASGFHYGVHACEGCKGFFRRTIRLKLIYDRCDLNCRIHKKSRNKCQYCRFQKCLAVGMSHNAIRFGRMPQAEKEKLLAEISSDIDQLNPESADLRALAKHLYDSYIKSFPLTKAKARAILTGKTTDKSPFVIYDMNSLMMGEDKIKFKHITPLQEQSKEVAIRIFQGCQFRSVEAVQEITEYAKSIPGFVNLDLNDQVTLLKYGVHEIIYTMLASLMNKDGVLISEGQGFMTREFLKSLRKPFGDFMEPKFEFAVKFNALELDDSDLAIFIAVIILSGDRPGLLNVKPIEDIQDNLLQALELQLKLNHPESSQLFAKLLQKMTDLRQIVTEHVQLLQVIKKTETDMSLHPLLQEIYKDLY
Sequence of Peroxisome proliferator-activated receptor gamma/Nuclear receptor corepressor 2 (Q9Y618 whole entry): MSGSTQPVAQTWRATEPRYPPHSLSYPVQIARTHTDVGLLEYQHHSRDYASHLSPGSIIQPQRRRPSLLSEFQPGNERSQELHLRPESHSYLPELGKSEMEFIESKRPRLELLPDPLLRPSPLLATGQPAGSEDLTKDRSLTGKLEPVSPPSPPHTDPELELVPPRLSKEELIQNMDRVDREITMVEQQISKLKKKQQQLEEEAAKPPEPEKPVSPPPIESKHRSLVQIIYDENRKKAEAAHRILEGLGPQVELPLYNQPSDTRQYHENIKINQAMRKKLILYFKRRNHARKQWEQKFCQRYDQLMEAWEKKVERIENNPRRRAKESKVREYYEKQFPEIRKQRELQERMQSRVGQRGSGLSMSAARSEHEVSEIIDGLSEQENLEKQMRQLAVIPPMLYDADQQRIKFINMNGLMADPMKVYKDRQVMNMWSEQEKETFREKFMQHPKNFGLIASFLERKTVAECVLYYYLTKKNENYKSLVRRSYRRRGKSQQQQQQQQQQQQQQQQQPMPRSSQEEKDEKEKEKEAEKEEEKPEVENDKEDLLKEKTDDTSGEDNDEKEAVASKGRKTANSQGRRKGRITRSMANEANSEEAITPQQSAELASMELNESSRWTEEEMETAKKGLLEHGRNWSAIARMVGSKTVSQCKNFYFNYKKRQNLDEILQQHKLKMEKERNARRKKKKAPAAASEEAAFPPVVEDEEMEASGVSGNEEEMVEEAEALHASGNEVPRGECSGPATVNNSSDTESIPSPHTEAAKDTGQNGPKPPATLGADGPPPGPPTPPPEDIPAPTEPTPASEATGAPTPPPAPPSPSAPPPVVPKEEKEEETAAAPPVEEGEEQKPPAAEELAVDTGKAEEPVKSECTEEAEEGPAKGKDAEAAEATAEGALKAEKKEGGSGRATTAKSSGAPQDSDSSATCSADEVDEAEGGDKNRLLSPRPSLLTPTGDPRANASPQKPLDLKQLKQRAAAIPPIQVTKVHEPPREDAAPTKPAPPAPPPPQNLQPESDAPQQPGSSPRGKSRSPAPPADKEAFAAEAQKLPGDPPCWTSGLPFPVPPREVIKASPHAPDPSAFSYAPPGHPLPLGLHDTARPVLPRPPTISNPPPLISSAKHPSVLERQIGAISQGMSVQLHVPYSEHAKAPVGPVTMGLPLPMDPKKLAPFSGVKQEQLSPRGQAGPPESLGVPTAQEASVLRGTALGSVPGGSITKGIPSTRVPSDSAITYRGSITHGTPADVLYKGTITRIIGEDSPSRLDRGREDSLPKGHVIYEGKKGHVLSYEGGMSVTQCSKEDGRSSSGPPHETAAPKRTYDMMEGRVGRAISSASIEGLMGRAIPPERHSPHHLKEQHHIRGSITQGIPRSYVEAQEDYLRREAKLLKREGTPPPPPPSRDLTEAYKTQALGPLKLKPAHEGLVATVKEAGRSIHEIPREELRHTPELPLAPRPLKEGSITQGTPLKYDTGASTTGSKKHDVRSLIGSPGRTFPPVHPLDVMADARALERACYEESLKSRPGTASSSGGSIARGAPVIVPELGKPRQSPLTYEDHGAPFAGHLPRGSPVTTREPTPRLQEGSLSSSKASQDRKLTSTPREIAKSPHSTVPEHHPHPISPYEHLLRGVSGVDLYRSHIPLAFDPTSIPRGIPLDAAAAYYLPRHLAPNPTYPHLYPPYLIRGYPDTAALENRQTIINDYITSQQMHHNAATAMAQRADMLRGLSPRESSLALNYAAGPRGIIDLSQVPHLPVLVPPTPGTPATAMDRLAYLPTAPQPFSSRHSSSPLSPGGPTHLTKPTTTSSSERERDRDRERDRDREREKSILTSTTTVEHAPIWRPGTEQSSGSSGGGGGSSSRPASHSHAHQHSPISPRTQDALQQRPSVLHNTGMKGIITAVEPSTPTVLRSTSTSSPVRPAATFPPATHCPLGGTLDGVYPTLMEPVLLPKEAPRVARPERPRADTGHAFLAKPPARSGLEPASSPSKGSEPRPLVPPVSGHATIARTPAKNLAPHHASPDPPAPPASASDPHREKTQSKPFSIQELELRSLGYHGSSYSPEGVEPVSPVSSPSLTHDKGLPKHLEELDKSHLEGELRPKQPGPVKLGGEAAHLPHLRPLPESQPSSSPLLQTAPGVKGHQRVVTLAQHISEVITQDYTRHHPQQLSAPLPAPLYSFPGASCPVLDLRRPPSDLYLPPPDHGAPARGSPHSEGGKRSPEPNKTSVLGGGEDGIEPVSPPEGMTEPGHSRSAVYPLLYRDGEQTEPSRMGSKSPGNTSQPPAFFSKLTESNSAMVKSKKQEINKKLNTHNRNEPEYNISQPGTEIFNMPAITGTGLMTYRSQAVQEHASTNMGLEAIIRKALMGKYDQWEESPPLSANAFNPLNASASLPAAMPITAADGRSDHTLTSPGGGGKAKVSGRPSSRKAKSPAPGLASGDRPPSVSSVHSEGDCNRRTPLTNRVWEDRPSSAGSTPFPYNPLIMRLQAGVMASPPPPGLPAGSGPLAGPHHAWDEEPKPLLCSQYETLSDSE

[9] = molecular target: Photoreceptor-specific nuclear receptor (Homo sapiens, UniProt Q9Y5X4); assay: NR2E3 inverse agonists, dose response, biochemical, TR-FRET (AID 463256); format: functional
Sequence of Photoreceptor-specific nuclear receptor (Q9Y5X4 whole entry): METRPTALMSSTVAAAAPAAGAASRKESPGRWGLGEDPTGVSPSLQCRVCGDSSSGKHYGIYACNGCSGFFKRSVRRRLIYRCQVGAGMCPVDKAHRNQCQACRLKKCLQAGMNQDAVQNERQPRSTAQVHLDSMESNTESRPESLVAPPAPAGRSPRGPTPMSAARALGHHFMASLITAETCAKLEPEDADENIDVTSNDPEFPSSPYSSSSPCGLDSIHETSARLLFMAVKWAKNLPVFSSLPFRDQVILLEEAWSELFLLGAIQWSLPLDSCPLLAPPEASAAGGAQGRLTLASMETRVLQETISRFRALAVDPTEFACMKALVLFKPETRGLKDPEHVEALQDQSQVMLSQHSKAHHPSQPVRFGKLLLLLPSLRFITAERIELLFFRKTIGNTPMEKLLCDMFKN

[10] = molecular target: T5, Endoribonuclease toxin MazF (Escherichia coli K-12, UniProt P0AE70); assay: MazF toxin RNase activators, dose response, biochemical, fluorescence, single-stranded RNA substrate, uHTS hits (AID 588481); format: functional
T5 sequence (P0AE70 whole entry): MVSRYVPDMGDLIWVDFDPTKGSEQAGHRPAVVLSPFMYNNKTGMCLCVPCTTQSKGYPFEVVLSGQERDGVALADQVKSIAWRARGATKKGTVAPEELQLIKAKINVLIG

[11] = molecular target: T5, Endoribonuclease toxin MazF; assay: fluorescent RNA oligo signal without MazF, dose response, counter-screen for MazEF activator project, biochemical, fluorescence, single-stranded RNase substrate (AID 588502); format: functional
[12] = test system: HEK293; assay: inhibitors of LMP1-driven NF-kB reporter, dose response, cell-based, HEK293, luciferase, cherry-pick (AID 588343); format: functional; conditions: Homo sapiens
[13] = Shn3 3'UTR reporter inhibitors, dose response, cell-based, Clone20 osteoblasts, firefly luciferase, cherry-picked (AID 624132); format: functional;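 further: firefly luciferase luminescence from reporter carrying the Shn3 3'UTR in osteoblasts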
[14] = HepG2 cell cytotoxicity, dose response, cytotoxicity control for Shn3 inhibitor project, CellTiter-Glo, cherry-picked (AID 624134); format: functional, cell-based
[15] = control 3'UTR Renilla luciferase suppression, dose response, counter-screen for Shn3 inhibitor project, cell-based, Clone20-Shn3RL, cherry-picked (AID 624133); format: functional
[16] = Lymphoblastoid Cells (LCL) Cytotoxicity Secondary Assay Measured in Cell-Based System Using Plate Reader - 2122-03_Inhibitor_Dose_CherryPick_Activity_Set2. [Related pubchem assays (depositor defined):AID504586]
[17] = inhibitors of firefly luciferase expression or activity, dose response, H4 neuroglioma cells, luminescence (AID 1990); format: functional, cell-based
[18] = test system: BJ; assay: cytotoxicity toward BJ-TERT fibroblasts, dose response, cell-based, RAS-independent, luminescence (AID 1933); format: functional; conditions: Homo sapiens
[19] = Luminescence Cell-Based Dose Response HTS to Identify Inhibitors of 5'UTR Stem-Loop Driven Prion Protein mRNA Translation in H4 Neuroglioblastoma Cells. [Related pubchem assays: 1827 (Project Summary), 1813 (Primary HTS)]; format: functional
[20] = inhibitors of SNCA 5'UTR-driven reporter translation, confirmation, H4 neuroglioma cells, luminescence (AID 1988); format: functional, cell-based
[21] = test system: BJ; assay: cells; format: functional, cell-based; conditions: Homo sapiens
[22] = test system: BJ; assay: cytotoxicity toward BJ-TERT-LT-ST fibroblasts, dose response, cell-based, RAS-independent, luminescence (AID 1935); format: functional; conditions: Homo sapiens;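 further: BJ fibroblasts immortalized with TERT plus LT and ST oncogenes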
[23] = cytotoxicity toward DRD oncogenic fibroblasts, dose response, cell-based, non-viral oncogenic, luminescence (AID 1934); format: functional; conditions: Homo sapiens
[24] = molecular target: C-C chemokine receptor type 6 (Homo sapiens, UniProt P51684); assay: CCR6 receptor antagonists, dose response, cell-based, luminescent beta-arrestin readout (AID 504728); format: functional
Sequence of C-C chemokine receptor type 6 (P51684 whole entry): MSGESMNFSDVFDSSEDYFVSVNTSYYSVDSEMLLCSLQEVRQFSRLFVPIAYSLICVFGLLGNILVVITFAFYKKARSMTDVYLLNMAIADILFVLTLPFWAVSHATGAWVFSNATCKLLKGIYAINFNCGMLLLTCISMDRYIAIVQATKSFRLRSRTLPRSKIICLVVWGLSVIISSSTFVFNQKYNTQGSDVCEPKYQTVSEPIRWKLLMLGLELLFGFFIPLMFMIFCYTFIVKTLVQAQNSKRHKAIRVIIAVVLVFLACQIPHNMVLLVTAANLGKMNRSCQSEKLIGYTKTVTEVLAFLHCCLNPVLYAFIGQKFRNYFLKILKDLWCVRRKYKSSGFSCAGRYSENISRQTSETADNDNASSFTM

[25] = molecular target: T6, Bcl-2-related protein A1 (Mus musculus, UniProt Q07440); format: functional;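 further: confirmatory dose–response counterscreen on Bfl-1, used to check hits from a UBC13 polyubiquitin inhibitor campaign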
T6 sequence (Q07440 whole entry): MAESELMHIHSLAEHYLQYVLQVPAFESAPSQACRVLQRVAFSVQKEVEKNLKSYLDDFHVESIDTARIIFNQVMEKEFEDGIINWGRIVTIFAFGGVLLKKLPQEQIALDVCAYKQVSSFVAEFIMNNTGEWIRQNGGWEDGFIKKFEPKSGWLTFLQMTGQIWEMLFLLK

[26] = molecular target: T7, Ubiquitin-conjugating enzyme E2 N (Homo sapiens, UniProt P61088); format: functional
T7 sequence (P61088 whole entry): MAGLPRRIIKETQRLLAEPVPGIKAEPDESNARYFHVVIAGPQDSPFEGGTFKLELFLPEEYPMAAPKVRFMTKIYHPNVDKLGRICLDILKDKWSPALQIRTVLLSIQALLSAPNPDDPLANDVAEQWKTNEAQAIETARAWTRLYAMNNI

[27] = molecular target: Beta-galactosidase (Escherichia coli, UniProt Q8VNN2); assay: beta-galactosidase enzyme inhibitors and activators, dose response, artefact control for CCR6 antagonist project, biochemical, E. coli enzyme, set 3 (AID 504712); format: functional
[28] = molecular target: T7, Ubiquitin-conjugating enzyme E2 N; format: functional; remark: listed apart in the source
[29] = test system: BJ; assay: cytotoxicity toward Ras-transformed BJeLR fibroblasts, dose response, cell-based, alamar blue fluorescence, cherrypicked samples (AID 2631); format: functional; conditions: Homo sapiens;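 further: confirmatory dose-response assay in RAS-dependent BJ fibroblasts engineered with TERT, LT and ST, with cytotoxicity read by fluorescence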
[30] = molecular target: T8, DNA repair protein RAD52 homolog (Homo sapiens, UniProt P43351); format: functional, biochemical
T8 sequence (P43351 whole entry): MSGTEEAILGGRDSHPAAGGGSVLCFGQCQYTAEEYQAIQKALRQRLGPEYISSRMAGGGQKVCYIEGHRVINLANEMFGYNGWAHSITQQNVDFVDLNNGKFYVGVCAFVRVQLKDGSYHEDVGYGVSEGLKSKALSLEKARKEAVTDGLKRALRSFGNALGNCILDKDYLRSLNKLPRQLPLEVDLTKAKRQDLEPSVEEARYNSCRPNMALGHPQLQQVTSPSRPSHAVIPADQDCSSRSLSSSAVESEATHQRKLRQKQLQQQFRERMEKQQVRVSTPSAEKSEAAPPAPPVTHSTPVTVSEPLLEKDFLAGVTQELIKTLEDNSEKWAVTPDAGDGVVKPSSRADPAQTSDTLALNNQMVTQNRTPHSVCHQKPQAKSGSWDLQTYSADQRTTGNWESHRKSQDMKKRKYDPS

[31] = molecular target: Paired box protein Pax-8 (Homo sapiens, UniProt Q06710); assay: inhibitors of PAX8-driven TPO luciferase reporter, dose response, RMG-I cells, cherry-pick (AID 687027); format: functional, cell-based;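 further: luciferase reporter driven by Pax8 target thyroperoxidase promoter measured by SteadyGlo luminescence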
[32] = non-specific cell cytotoxicity, dose response, cytotoxicity control for PAX8 inhibitor project, plate reader, dry powder samples (AID 743021); format: functional, cell-based

T1 sequence (P25098 whole entry): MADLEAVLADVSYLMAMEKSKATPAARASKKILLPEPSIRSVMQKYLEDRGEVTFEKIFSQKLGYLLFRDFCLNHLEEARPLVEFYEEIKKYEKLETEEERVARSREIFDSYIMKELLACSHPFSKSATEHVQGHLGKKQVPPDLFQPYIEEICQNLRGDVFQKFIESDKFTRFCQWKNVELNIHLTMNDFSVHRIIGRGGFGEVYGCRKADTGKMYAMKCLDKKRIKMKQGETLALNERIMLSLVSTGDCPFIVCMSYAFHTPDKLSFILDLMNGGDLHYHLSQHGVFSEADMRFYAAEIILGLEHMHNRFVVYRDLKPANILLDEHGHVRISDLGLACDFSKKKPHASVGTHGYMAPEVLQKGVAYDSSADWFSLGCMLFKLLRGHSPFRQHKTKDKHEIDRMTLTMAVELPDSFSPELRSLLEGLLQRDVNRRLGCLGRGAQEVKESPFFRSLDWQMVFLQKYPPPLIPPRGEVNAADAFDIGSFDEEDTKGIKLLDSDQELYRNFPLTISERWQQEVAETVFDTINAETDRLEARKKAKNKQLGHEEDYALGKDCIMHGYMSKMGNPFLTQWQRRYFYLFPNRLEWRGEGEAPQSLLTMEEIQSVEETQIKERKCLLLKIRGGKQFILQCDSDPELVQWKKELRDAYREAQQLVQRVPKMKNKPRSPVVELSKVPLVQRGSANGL

SMILES: COc1ccc([N+](=O)[O-])cc1NC(=O)CCS(=O)(=O)c1ccc(Br)cc1
- EC50 [1]: 15 µM (inactive)
- EC50 [2]: 12.2 µM (active)
- EC50 [3]: 1.45 µM (active)
- IC50 [4]: 4.79 µM (active)
- AC50 [5]: 4.1 µM (active)
- AC50 [6]: 3.61 µM (active)
- AC50 [7]: > 70 µM (inactive)

SMILES: Cn1nc(-c2ccc(C(=O)Nc3cccc(Cl)c3)cc2)c2ccccc2c1=O
- IC50 [8]: 1.78 µM (active)
- IC50 [9]: 3.95 µM (active)
- EC50 [10]: 57.9 µM (inactive)
- EC50 [11]: 14.8 µM (active)

SMILES: CCc1cc2c(N3CCN(c4ccccc4)CC3)ncnc2s1
- AC50 [12]: 26.7 µM (active)
- AC50 [13]: 6.18 µM (active)
- AC50 [14]: 34 µM (active)
- AC50 [15]: 11.3 µM (active)
- AC50 [16]: 26.2 µM (active)

SMILES: CCCCCNC(=N)N/N=C/c1c[nH]c2ccc(OC)cc12 [TEGASEROD MALEATE]
- EC50 [17]: > 60 µM (not active)
- EC50 [18]: 5.21 µM (inconclusive)
- EC50 [19]: > 120 µM (not active)
- EC50 [20]: 7.96 µM (active)
- EC50 [21]: 7.15 µM (active)
- EC50 [22]: 3.94 µM (active)
- EC50 [23]: 5.36 µM (inconclusive)
- IC50 [24]: 23.4 µM (inactive)
- IC50 [25]: > 20 µM (inactive)
- IC50 [26]: 12.5 µM (active)
- IC50 [27]: > 66.6 µM (inactive)
- IC50 [28]: 8.2 µM (active)
- EC50 [29]: 3.92 µM (inconclusive)
- AC50 [30]: 16.7 µM (active)
- AC50 [31]: 12.4 µM (active)
- AC50 [32]: 23.2 µM (active)
